Data from the supplement of paper PMC4977894.
Where a name gives a salt, the structure may show the parent alone. ± gives the standard deviation of the averaged measurements.

How the values were obtained:
[1] = tested on: Homo sapiens (human subject panel, olfactory perception); assay: perceived odor familiarity rating (rating 0-100); higher = more familiar
Description: (§1)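 Human olfactory psychophysics. 55 healthy subjects (after excluding 6 low performers) sniffed 1 mL of each odorant diluted in paraffin oil (vials, two dilutions per molecule, 20 molecules presented twice). Each subject rated intensity, pleasantness and familiarity on a 0-100 slider, starting at 50 and required to move. Ratings were given only when the subject reported detecting a smell; per-subject ratings are averaged over subjects.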

[2] = tested on: Homo sapiens (human subject panel, olfactory perception); assay: perceived odor intensity rating (rating 0-100); higher = stronger perceived smell
Description: as §1

[3] = tested on: Homo sapiens (human subject panel, olfactory perception); assay: perceived odor pleasantness rating (rating 0-100); higher = more pleasant
Description: as §1

[4] = odor dilution in paraffin oil: 1/1,000
[5] = odor dilution in paraffin oil: 1/100,000
[6] = odor dilution in paraffin oil: 1/10
[7] = odor dilution in paraffin oil: 1/10,000,000

Row | SMILES | perceived odor familiarity rating [1, 4] | perceived odor familiarity rating [1, 5] | perceived odor intensity rating [2, 4] | perceived odor intensity rating [2, 5] | perceived odor pleasantness rating [3, 4] | perceived odor pleasantness rating [3, 5] | perceived odor familiarity rating [1, 6] | perceived odor intensity rating [2, 6] | perceived odor pleasantness rating [3, 6] | perceived odor familiarity rating [1, 7] | perceived odor intensity rating [2, 7] | perceived odor pleasantness rating [3, 7]
1 | C[C@@]12C=CC[C@H]1[C@@H]1CCC3=CC(=O)CC[C@]3(C)[C@H]1CC2 [Androstadienone] | 45.8 ± 34 | 31.6 ± 30 | 63.1 ± 32 | 38.2 ± 35 | 29.2 ± 24 | 38.6 ± 27 |  |  |  |  |  | 
2 | CCCc1ccc(O)cc1 [4-propylphenol] | 39 ± 33 | 43.6 ± 27 | 67.3 ± 24 | 38.2 ± 30 | 36.7 ± 24 | 47.7 ± 21 |  |  |  |  |  | 
3 | N[C@@H](Cc1ccc(O)cc1)C(=O)O [L-Tyrosine] | 37.4 ± 27 | 26.6 ± 26 | 30.7 ± 28 | 25.3 ± 33 | 44 ± 23 | 44.1 ± 30 |  |  |  |  |  | 
4 | C[C@H](N)C(=O)O [L-Alanine] | 23.8 ± 22 |  | 14.7 ± 22 |  | 45.9 ± 20 |  | 40.9 ± 32 | 31.9 ± 30 | 55.7 ± 28 |  |  | 
5 | CC1(C)CCC[C@]2(C)[C@H]3CCO[C@]3(C)CC[C@@H]12 [Ambrox] | 60.9 ± 28 |  | 50.1 ± 30 |  | 62.8 ± 23 |  | 61 ± 27 | 73.6 ± 23 | 55.7 ± 27 |  |  | 
6 | c1ccncc1 [pyridine] |  | 33.7 ± 29 |  | 21.5 ± 23 |  | 46.8 ± 24 |  |  |  | 28 ± 28 | 13 ± 21 | 54.2 ± 25
7 | CCOC(=O)CC(O)(CC(=O)OCC)C(=O)OCC [Triethyl citrate] | 26.4 ± 22 |  | 20.4 ± 24 |  | 46.2 ± 24 |  | 41.4 ± 29 | 31.3 ± 30 | 41.1 ± 19 |  |  | 
8 | CC12CCC(CC1=O)C2(C)C [D-Camphor] | 68.5 ± 25 |  | 63.8 ± 31 |  | 52.3 ± 28 |  | 81 ± 26 | 89.8 ± 17 | 52.1 ± 30 |  |  | 
9 | CSCCO [2-(Methylthio)ethanol] | 53.8 ± 34 | 37.4 ± 31 | 77.7 ± 23 | 32.3 ± 29 | 34.1 ± 31 | 40 ± 18 |  |  |  |  |  | 
10 | CC1(C)C2CC=C(C=O)C1C2 [(1R)-(-)-Myrtenal] |  | 48.3 ± 31 |  | 62.4 ± 26 |  | 40.3 ± 25 |  |  |  | 40.7 ± 33 | 33.8 ± 31 | 50.1 ± 24
11 | CCCCCCOC(=O)CCCCC [Hexyl hexanoate] | 38 ± 29 |  | 34.4 ± 26 |  | 48.2 ± 23 |  | 39 ± 26 | 67.7 ± 26 | 43.8 ± 25 |  |  | 
12 | OC/C=C/c1ccccc1 [cinnamyl alcohol] | 52.6 ± 34 | 53.7 ± 33 | 75.8 ± 21 | 60.3 ± 28 | 47.4 ± 31 | 42.9 ± 28 |  |  |  |  |  | 
13 | CC12CCC(CC1)C(C)(C)O2 [1,8-cineole] | 69.7 ± 25 | 53.5 ± 30 | 70.1 ± 24 | 45.5 ± 29 | 62.5 ± 24 | 61.5 ± 25 |  |  |  |  |  | 
14 | CC(O)CO (configuration not stated) [Propylene glycol] | 33.7 ± 29 |  | 10.5 ± 13 |  | 42.5 ± 25 |  | 52.2 ± 30 | 45.8 ± 34 | 46.2 ± 25 |  |  | 
15 | C=CCCC(=O)O [4-Pentenoic acid] | 48.1 ± 34 | 44.9 ± 32 | 80.5 ± 22 | 65 ± 29 | 14.1 ± 18 | 15.7 ± 18 |  |  |  |  |  | 
16 | OC/C=C/c1ccccc1 [Cinnamyl alcohol] |  | 52 |  | 6 |  | 32 |  |  |  |  |  | 
17 | CC1CCC(=O)CC1 [4-Methylcyclohexanone] | 46 ± 32 | 49.2 ± 28 | 60.9 ± 31 | 32.5 ± 28 | 36.9 ± 25 | 64.6 ± 20 |  |  |  |  |  | 
18 | CCCC(=O)O [butyric acid] | 53.1 ± 31 | 50.2 ± 34 | 86.8 ± 13 | 76.8 ± 23 | 21.1 ± 27 | 16 ± 18 |  |  |  |  |  | 

Row | SMILES | perceived odor familiarity rating [1, 4] | perceived odor familiarity rating [1, 5] | perceived odor intensity rating [2, 4] | perceived odor intensity rating [2, 5] | perceived odor pleasantness rating [3, 4] | perceived odor pleasantness rating [3, 5] | perceived odor familiarity rating [1, 6] | perceived odor intensity rating [2, 6] | perceived odor pleasantness rating [3, 6] | perceived odor familiarity rating [1, 7] | perceived odor intensity rating [2, 7] | perceived odor pleasantness rating [3, 7]
19 | C/C=C/C=C/COC(C)=O [trans,trans-2,4-Hexadienyl acetate] | 35.5 ± 27 |  | 22 ± 23 |  | 51.3 ± 24 |  | 24.8 ± 27 | 13.9 ± 24 | 39.4 ± 25 |  |  | 
20 | CC(=O)C(C)=O [2,3-butanedione] | 49.3 ± 34 | 50 ± 29 | 81.7 ± 19 | 55.8 ± 28 | 24.5 ± 19 | 35.9 ± 22 |  |  |  |  |  | 
21 | CC(C)COC(=O)c1ccccc1 [Isobutyl benzoate] | 41.1 ± 29 |  | 36.7 ± 31 |  | 49 ± 26 |  | 53.3 ± 30 | 78.7 ± 20 | 47.6 ± 29 |  |  | 
22 | CC(C)CC(=O)O[C@@H]1C[C@H](C)CC[C@H]1C(C)C [Menthyl isovalerate] | 39.5 ± 27 | 35 ± 33 | 33.9 ± 28 | 18.6 ± 24 | 56.9 ± 25 | 49.4 ± 24 |  |  |  |  |  | 
23 | CCCCCCOC(=O)CCC [hexyl butyrate] | 44.1 ± 30 | 35.8 ± 27 | 45.6 ± 34 | 19.4 ± 21 | 34.1 ± 25 | 43.9 ± 16 |  |  |  |  |  | 
24 | CC(=O)OCCc1scnc1C [4-Methyl-5-thiazoleethanol acetate] | 53.8 ± 31 | 45.9 ± 32 | 66.3 ± 26 | 38 ± 30 | 34.4 ± 25 | 41.9 ± 24 |  |  |  |  |  | 
25 | O=C(O)[C@@H]1CCCN1 [L-Proline] | 45.8 ± 35 |  | 60.2 ± 31 |  | 22.8 ± 24 |  | 45.3 ± 30 | 81.4 ± 20 | 27.9 ± 28 |  |  | 
26 | CC(C)C[C@H](N)C(=O)O [L-Leucine] | 42.9 ± 31 |  | 46.9 ± 29 |  | 46.4 ± 27 |  | 45.5 ± 31 | 70.9 ± 27 | 22.9 ± 26 |  |  | 
27 | CC=C(C=O)c1ccccc1 [2-Phenyl-2-butenal] |  | 30.9 ± 30 |  | 19.8 ± 24 |  | 36.6 ± 25 |  |  |  | 34.5 ± 24 | 20.1 ± 29 | 57.5 ± 21
28 | C=C(C)[C@H]1CC=C(C)CC1 [d-Limonene] | 43.6 ± 28 | 41.1 ± 28 | 29.6 ± 26 | 45.4 ± 36 | 52.6 ± 21 | 30.9 ± 25 |  |  |  |  |  | 
29 | O=C(OCc1ccccc1)c1ccccc1 [Benzyl benzoate] | 42.4 ± 31 |  | 19.8 ± 24 |  | 48.6 ± 21 |  | 38.5 ± 26 | 53.3 ± 30 | 46.9 ± 24 |  |  | 
30 | C=CC(C)(CCC=C(C)C)OC(C)=O (configuration not stated) [Linalyl acetate] | 39.3 ± 31 | 38.1 ± 31 | 29.8 ± 30 | 31.5 ± 30 | 56.9 ± 24 | 44.5 ± 21 |  |  |  |  |  | 
31 | COc1ccc2ccc(=O)oc2c1 [7-Methoxycoumarin] | 47.2 ± 29 |  | 42.3 ± 24 |  | 59.3 ± 25 |  | 52 ± 30 | 62 ± 26 | 62 ± 25 |  |  | 
32 | c1ccsc1 [Thiophene] | 39.3 ± 29 | 43.1 ± 30 | 32.8 ± 34 | 39.5 ± 30 | 28.7 ± 20 | 40.8 ± 24 |  |  |  |  |  | 
33 | OCc1ccco1 [Furfuryl alcohol] | 50.3 ± 27 | 33.6 ± 28 | 56.7 ± 29 | 22.8 ± 22 | 39.6 ± 23 | 44.6 ± 24 |  |  |  |  |  | 
34 | CC/C=C\CCOC(=O)CC [cis-3-Hexenyl propionate] | 60.9 ± 30 | 30.7 ± 28 | 61.7 ± 26 | 20.4 ± 23 | 64.4 ± 28 | 52 ± 20 |  |  |  |  |  | 
35 | CCCCCCCCO [octanol] | 51.7 ± 33 | 38.3 ± 26 | 65.6 ± 26 | 25 ± 27 | 49.9 ± 28 | 46.2 ± 24 |  |  |  |  |  | 
